Values after ≈ are worked out from the molar mass of the structure shown. Values joined by “and” are separate entries in the source; they are usually repeats but may differ in a detail not shown here. Equal values may be shown once. Read-outs that look alike come from different tables or passages of the source.
Columns and labels:
HSV-1 strain McKrae = assay: HSV-1 epithelial keratitis rabbit model, topical treatment, SLE scores; type: in vivo; conditions: 14 days post-inoculation, 1% topical 5 times per day
Excerpt: (§1) The rabbit eye is an excellent model to study acute HSV-1 epithelial keratitis. Also, spontaneous and induced ocular HSV-1 shedding and corneal epithelial disease in rabbits has been used as a model of human ocular HSV-1 reactivation and recurrence. HSV-1 strain McKrae was used in studies for epithelial keratitis. HSV-1 strain RE was used for studies of HSV stromal keratitis.
i) Epithelial Keratitis: A group of ten rabbits was used to study each compound. Both eyes of all rabbits were used. An aqueous vehicle (like a placebo) and one positive control were obtained using 1% TFT (Viroptic®). Each compound at 1% concentration (TFT=33 mM, Gly-Gly-ACV=26.6 mM, Val-Val-ACV=18.6 mM) were applied (50 μl) topically 5 times per day every two hours starting at 8:00 a.m. and ending at 4:00 p.m. The treatment began on the 3rd post-inoculation day and continued for 5 consecutive days. Slit-lamp examinations were performed once every day for 8 days and thereafter once every other day until lesions resolved.

[1] = system: rabbit corneal cell line (SIRC)
HSV-1 strain RE = assay: HSV-1 stromal keratitis rabbit model, topical treatment, SLE scores; type: in vivo; conditions: 13 days post-inoculation, 1% topical
Excerpt: as §1
ii) Stromal Keratitis: The experiment is similar to the part (i) experiment as far as the treatment cycles for all experimental drugs (TFT and Val-Val-ACV) are concerned. The effect of Val-Val-ACV on stromal keratitis induced by intrastromal injection with a high (20 μl of a 1×10^7 pfu/ml stock) titer of HSV-1RE strain was compared to that of TFT. Each compound at 1% concentration (TFT=33 mM, Val-Val-ACV=18.6 mM) was applied topically. The same scoring as noted in Table 4 is used for stromal keratitis. Emphasis is placed on the stromal edema and visibility into the aqueous chamber and the visualization of the pupil and iris.
A group of ten rabbits were used to study each compound. Both eyes of all rabbits were treated. Three to four groups of 10 rabbits are used in one experiment. This includes vehicle control, TFT, and the newly synthesized antiviral Val-Val-ACV.

EBV = assay: In vitro antiviral screening, VCA Elisa; type: cell-based, epstein-barr virus
HSV-1 = assay: In vitro antiviral screening, CPE inhibition in HFF cells; type: cell-based, herpes simplex virus 1
Caco-2 cell suspension = conditions: Caco-2, pH 7.4
HSV-2 = assay: In vitro antiviral screening, CPE inhibition in HFF cells; type: cell-based, herpes simplex virus 2
[2] = system: human fibroblast foreskin cells (HFF)
HCMV = assay: In vitro antiviral screening, CPE inhibition in HFF cells; type: cell-based, human cytomegalovirus
[3] = system: oligopeptide transporter on the rabbit cornea
[4] = rats, portal vein
VZV = assay: In vitro antiviral screening, CPE inhibition in HFF cells; type: cell-based, varicella zoster virus
hPEPT1 = molecular target: T1, hPEPT1 (Homo sapiens, UniProt P46059); assay: [3H] Glycylsarcosine uptake and its inhibition in Caco-2 cells (affinity towards peptide transporter); type: cell-based; conditions: for Ki: read-out: Ki
T1 construct: endogenous in cells; host or cells: Caco-2 (human colon carcinoma, ATCC)
T1 sequence (P46059 1-708): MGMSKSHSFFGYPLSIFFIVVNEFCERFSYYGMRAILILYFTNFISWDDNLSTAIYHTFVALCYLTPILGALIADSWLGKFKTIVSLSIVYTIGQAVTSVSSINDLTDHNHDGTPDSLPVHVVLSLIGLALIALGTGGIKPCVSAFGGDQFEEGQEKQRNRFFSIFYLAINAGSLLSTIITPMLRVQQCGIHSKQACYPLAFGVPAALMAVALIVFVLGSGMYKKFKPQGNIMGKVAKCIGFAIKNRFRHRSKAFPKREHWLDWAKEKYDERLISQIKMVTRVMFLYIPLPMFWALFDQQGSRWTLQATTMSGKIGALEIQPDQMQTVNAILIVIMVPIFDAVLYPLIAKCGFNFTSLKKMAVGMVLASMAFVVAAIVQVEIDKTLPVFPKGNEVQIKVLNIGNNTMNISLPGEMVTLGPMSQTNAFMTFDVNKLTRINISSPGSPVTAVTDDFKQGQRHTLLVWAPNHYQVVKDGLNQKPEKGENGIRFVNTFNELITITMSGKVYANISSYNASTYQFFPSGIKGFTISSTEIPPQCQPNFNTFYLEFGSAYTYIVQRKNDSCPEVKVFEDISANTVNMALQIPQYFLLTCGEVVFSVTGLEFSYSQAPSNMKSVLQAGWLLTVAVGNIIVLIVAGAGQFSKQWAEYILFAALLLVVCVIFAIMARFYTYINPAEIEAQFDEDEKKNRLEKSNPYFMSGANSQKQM
Excerpt: Materials: [^3H] Glycylsarcosine (Gly-Sar; 4 Ci/mmol) was purchased from Moravek Biochemicals (Brea, Calif.) and [^14C] Mannitol (50 mCi/mmol) was supplied by Amersham (Piscataway, N.J.). Human colon carcinoma derived Caco-2 cells were obtained from American Type Culture Collection (ATCC, Rockville, Md.). The growth medium, Dulbecco's modified Eagle Medium was obtained from Life Technologies (Grand Island, N.Y.). […] Fetal bovine serum (FBS) was purchased from JRH Biosciences (Lenexa, Kans.). Culture flasks (75 cm^2 growth area), polyester Transwells® (pore size 0.4 Cm with diameter 6.5 mm) and polyester membranes (pore size 0.4 Cm) were procured from Costar (Bedford, Mass.). The buffer components and solvents were obtained from Fisher Scientific (St. Louis, Mo.). All the di-peptide esters of acyclovir were custom synthesized in our laboratory. […] Cell Culture: All cultures were maintained in humidified incubator at 37° C. with a 5% carbon dioxide in air atmosphere. Caco-2 cells were obtained at passage 25 from American Type Culture Collection (ATCC) and grown in plastic tissue culture flasks. […] When 80% confluent, these cells were removed by treating them with Trypsin/EDTA and plated at a density of 100,000 cells/cm^2 on collagen coated plastic dishes containing clear polyester membranes (0.636 cm^2, […]) or 12-well tissue culture treated plastic plates. Cells were then grown in medium containing 10% FBS (heat-inactivated). […] [^14C] […] Metabolism studies in Cell Suspensions: Confluent Caco-2 cells, grown in tissue culture flasks were isolated with the aid of mechanical scraper and washed thrice with DPBS. […] One-hundred micro-liters of samples were withdrawn at predetermined time intervals and the sample was purified by precipitating the cellular proteins into the organic solvent mixture and stored at −80° C. until further analysis. The protein content of the cell suspension was determined by the method of Bradford using bovine serum albumin as the standard (BioRad protein estimation kit, Hercules, Calif.). […] Transport studies: Transport experiments were done using Side-Bi-Side™ diffusion cells (type VSC-1, Crown Glass Company Inc.) and Transwell® inserts. Prior to the experiment with Gly-Sar, Caco-2 cell monolayers grown on the clear polyester membranes and Transwell® inserts were washed with DPBS (pH 6.0) and incubated at 37° C. Freshly prepared drug solutions in DPBS (pH 6.0) was placed in the donor chamber and the receiver chamber was filled with DPBS. The volumes of donor and receptor chambers were 3 ml each for Side-Bi-Side™ diffusion cells and 0.5 ml and 1.5 ml respectively for Transwell® inserts. […] The samples were stored at −80° C. until analyzed HPLC. All experiments were performed at 37° C. […] The concentration dependent uptake of glycylsarcosine was studied using [^3H] […] For Dixon plots and Dose Response studies [^3H] […] Following incubation, the cell monolayers were washed three times with ice-cold HEPES buffer to terminate the uptake experiment. After the washings cells were lysed overnight using 1 ml 0.1% (w/v) Triton X-100 in 0.3 N NaOH at room temperature. Aliquots (500 μl) from each well were then transferred to scintillation vials containing 5 ml scintillation cocktail (Fisher Scientific, Fairlawn, N.J.). […] The amount of protein in the cell lysate was measured by the BioRad protein estimation kit using bovine serum albumin as standard (BioRad Protein estimation Kit, Hercules, Calif.). Analytical Procedures: All samples were assayed using HPLC. […] The column used was a C18 Luna column 4.6×250 mm (Phenomenex). The mobile phase consisted of a mixture of buffer and an organic modifier. The percentage of organic phase was varied in order to elute compounds of interest.

[5] = rats, jugular vein
[6] = New Zealand albino, rabbit
Aqueous solubility = type: physicochemical
in vitro = conditions: New Zealand albino, rabbit
[7] = oral 20.0 mg/kg equivalent, total concentration in terms of ACV
[8] = oral, analyte amino acid intermediate

Compound: O=c1[nH]c(=O)n([C@H]2C[C@H](O)[C@@H](CO)O2)cc1C(F)(F)F [TFT, trifluorothymidine, reference compound]
- Concentration required to achieve an SLE Score of 0.3 (HSV-1 strain McKrae): 33.3 mM
- percent survival ([1]; SIRC cells, 0.025 mM): 86.98%
- percent survival ([1]; SIRC cells, 0.1 mM): 80.48%
- percent survival ([1]; SIRC cells, 0.5 mM): 64.76%
- percent survival ([1]; SIRC cells, 1 mM): 54.35%
- % viable cells ([1]; SIRC cells, 5 mM): 0.01% and 0.01±0.1%
- percent survival ([1]; SIRC cells, 5 mM): 0.01%
- Concentration required to achieve an SLE Score of 0.2 (HSV-1 strain RE): 33.3 mM

Compound: CC(C)C(NC(=O)CN)C(=O)OCCOCn1cnc2c(=O)[nH]c(N)nc21 (stereo not drawn) [Gly-Val-ACV, Glycine-Valine-Acyclovir]
- EC50 (EBV): 5.61 µM
- Vmax of concentration dependent transport (Caco-2 monolayers): 0.014±0.00058 moles cm^−2 min^−1
- inhibition in transport in presence of Gly-Sar (Caco-2 monolayers): 63 % inhibition
- Papp (Caco-2 monolayers; Caco-2, pH 6): 2.80±0.59 ×10^−6 cm/sec
- Papp (Caco-2 monolayers; Caco-2, pH 7.4): 5.23±0.57 ×10^−6 cm/sec
- Km (Caco-2 monolayers; read-out: Km of concentration dependent transport): 3.16 ± 0.31 mM
- EC50 (HSV-1; read-out: EC50 (concentration required to inhibit viral cytopathogenicity by 50%)): 12.6 µM
- 10^2 × kobs (Caco-2 cell suspension): 0.637 ± 0.01 min^−1mg^−1 protein
- t1/2 (Caco-2 cell suspension; human): 1.802 ± 0.04 h
- EC50 (HSV-2): 22.7 µM
- CC50 [2]: > 160 µM
- EC50 (HCMV): 59.5 µM
- Papp (% Control) of [3H] Val-ACV [3]: 23.7 (±6.6) % Control
- AUC(0-t)(TC) [4, 7]: 416.1 ± 140.9 µg·min/mL
- AUCinf(TC) [4, 7]: 598.7 ± 164.1 µg·min/mL
- Clast(TC) ([4]; oral): 810 ± 120 ng/mL
- Tmax(TC) ([4]; oral): 0.357 ± 0.0962 h
- AUC(0-t)(ACV) ([4]; oral, analyte acyclovir): 347.8 ± 108.2 µg·min/mL
- Cl(Acv) ([4]; oral, analyte acyclovir): 12.5 ± 5.5 mL/min
- Cmax(ACV) ([4]; oral, analyte acyclovir): 4060 ± 1440 ng/mL
- MRT(ACV) ([4]; oral, analyte acyclovir): 1.07 ± 0.0892 h
- AUC(0-t)(AA) [4, 8]: 143.6 ± 51.4 µg·min/mL
- Cl(AA) [4, 8]: 31.9 ± 5.3 ml min^−1I
- Cmax(AA) [4, 8]: 990 ± 540 ng/mL
- Cmax(TC) ([4]; oral, total concentration in terms of ACV): 4070 ± 1030 ng/mL
- % viable cells [1]: 81.1±6.7%
- EC50 (VZV): 0.38 µM
- Vmax of Gly-Sar uptake in presence of the drug (hPEPT1; Gly-Sar with drug (10 mM), Lineweaver-Burk): 0.095 ± 0.07 µmol/min/mg
- Ki (hPEPT1; Lineweaver-Burk): 1820 ± 340 µM
- Ki (hPEPT1; Michaelis-Menten): 1420 ± 240 µM
- AUC(0-t)(CC) ([5]; oral 20.0 mg/kg equivalent): 633.8 ± 115.5 µg·min/mL
- AUCinf(CC) ([5]; oral 20.0 mg/kg equivalent): 900.7 ± 74.8 µg·min/mL
- Clast(CC) ([5]; oral): 1100 ± 210 ng/mL
- Cmax(CC) ([5]; oral): 7200 ± 3300 ng/mL
- Tmax(CC) ([5]; oral): 0.37 ± 0.138 h
- AUC(0-t)(ACV) ([5]; oral, analyte acyclovir): 571.68 ± 99.22 µg·min/mL
- Cl(ACV) ([5]; oral, analyte acyclovir): 13.3 ± 3.5 mL/min
- Cmax(ACV) ([5]; oral, analyte acyclovir): 6900 ± 1500 ng/mL
- MRT(ACV) ([5]; oral, analyte acyclovir): 1.327 ± 0.1773 h
- AUC(0-t)(AA) [5, 8]: 133.1 ± 48.2 µg·min/mL
- Cl(AA) [5, 8]: 26.8 ± 4.5 mL/min

Compound: Nc1nc2c(ncn2COCCO)c(=O)[nH]1 [ACV, 2-amino-1,9-dihydro-9-[(2-hydroxyethoxy)methyl]-6H-purin-6-one]
- EC50 (EBV; human gammaherpesvirus 4, EBV, VCA Elisa): 7.5 µM
- Papp [6]: 4.24 ×10⁻⁶ cm/s
- EC50 (HSV-1; Human alphaherpesvirus 1, HFF, read-out: EC50 (concentration required to inhibit viral cytopathogenicity by 50%), HSV-1, CPE Inhibition): 7.1 µM
- EC50 (HSV-1; Human alphaherpesvirus 1, HFF, HSV-1, running text, read-out: EC50 against HSV-1): 7.1 µM
- EC50 (HSV-2; Human alphaherpesvirus 2, HFF, HSV-2, CPE Inhibition): 6.6 µM
- percent survival ([1]; SIRC cells, 0.025 mM): 94.71%
- percent survival ([1]; SIRC cells, 0.1 mM): 89.41%
- percent survival ([1]; SIRC cells, 0.5 mM): 69.81%
- percent survival ([1]; SIRC cells, 1 mM): 57.37%
- % viable cells ([1]; SIRC cells, 5 mM): 49.1±4.2%
- percent survival ([1]; SIRC cells, 5 mM): 49.12%
- solubility (Aqueous solubility; 25° C.): 2500 µg/mL (≈ 11.1 mM)
- solubility (Aqueous solubility; aqueous medium, 37° C., read-out: saturable solubility): 2000 µg/mL (≈ 8.88 mM)
- effect on the uptake of [3H] Gly-Sar (hPEPT1; Caco-2, pH 6.0, 10 minutes): did not inhibit
- Papp (in vitro): 4.24 ± 1.41 ×10⁻⁶ cm/s

Source: patent US20090149482A1, “STEREOCHEMICALLY DEFINED DIPEPTIDE ESTERS OF ANTIVIRAL AGENTS FOR ENHANCED OCULAR TREATMENT” (priority 2001, published 2009)
